Test results as given in publication PMC8659243, “Design, Synthesis and Tumour-Selective Toxicity of Novel 1-[3-{3,5-Bis(benzylidene)-4-oxo-1-piperidino}-3-oxopropyl]-4-piperidone Oximes and Related Quaternary Ammonium Salts” (Molecules, 2021).
Structures can show the parent of a compound that is named as a salt.

What was measured:
Ca9-22 cells = assay: Cytotoxicity against Ca9-22 cells, MTT method, 48 h; assay type: cell-based, human; conditions: for CC50: Homo sapiens, Ca9-22, concentration required to kill 50% of the cells, 48 h, MTT, read-out: CC50 Ca9-22; for SI Ca9-22: average CC50 towards HGF, HPLF, HPC divided by CC50 against Ca9-22
Protocol: (§1) A literature procedure was followed when the compounds in series 3 and 4 were evaluated against three human oral squamous cell carcinoma cell lines Ca9-22 (RCB-1976), HSC-2 (RCB1945), HSC-4 (RCB1902) (purchased from RIKEN Cell Bank, Tukuba, Japan) and three human normal oral cells, gingival fibroblast (HGF), periodontal ligament fibroblast (HPLF) and pulp cells (HPC) (established according to the guideline of the intramural ethic committee, A0808) except the duration of incubation was increased from 24 h to 48 h. In brief, various concentrations of the compounds were added to the DMEM media, which was supplemented by 10% heat-inactivated fetal bovine serum. Incubation was undertaken at 37 °C. At the completion of the experiment, cell viability was determined by the MTT method.

HSC-2 cells = assay: Cytotoxicity against HSC-2 cells, MTT method, 48 h; assay type: cell-based, human; conditions: for CC50: Homo sapiens, HSC-2, concentration required to kill 50% of the cells, 48 h, MTT; for SI HSC-2: average CC50 towards HGF, HPLF, HPC divided by CC50 against HSC-2
Protocol: as §1

HSC-4 cells = assay: Cytotoxicity against HSC-4 cells, MTT method, 48 h; assay type: cell-based, human; conditions: for CC50: Homo sapiens, HSC-4, concentration required to kill 50% of the cells, 48 h, MTT, read-out: CC50 HSC-4; for SI HSC-4: average CC50 towards HGF, HPLF, HPC divided by CC50 against HSC-4
Protocol: as §1

[1] = tested on: Ca9-22, HSC-2 and HSC-4 cells; assay: Average over Ca9-22, HSC-2 and HSC-4 neoplastic cells; assay type: cell-based, human; conditions: for CC50: Homo sapiens, average of Ca9-22, HSC-2 and HSC-4, read-out: Average CC50; for Average SI: average of SI for Ca9-22, HSC-2 and HSC-4
Protocol: In order to assess whether the compounds in series 3 and 4 are more toxic to neoplasms than non-malignant cells, selective index (SI) figures were calculated. In the in vivo situation, a tumour is surrounded by a number of non-malignant cells.
In order to identify the most promising lead compounds in terms of both cytotoxic potencies and favourable SI values, potency–selectivity expression (PSE) values were computed. […] Outstanding results may be noted for four compounds that have PSE values in excess of 100,000 namely 3d, 4c–e. […] However, the relative SI/PSE distribution patterns between series 3 and 4 (from a to h) are nearly superimposable with each other (Figure 3). […] It has been reported that 3,5-bis(3-iodo-5-methoxy-4-propoxybenzylidene)-N-acetylpiperidin-4-one inhibited tubulin and destabilization of microtubules, while 3,5-bis(3,4,5-trimethoxybenzylidene)-N-benzoylpiperidin-4-one destabilizes the microtubules. Thus, it remained to investigate whether compound 4d acts as an inhibitor of the microtubule.
as §1

[2] = Cytotoxicity against non-malignant HGF cells, MTT method, 48 h; assay type: cell-based; conditions: human, gingival fibroblasts (HGF)
Protocol: as §1

[3] = Cytotoxicity against non-malignant HPLF cells, MTT method, 48 h; assay type: cell-based; conditions: human, periodontal ligament fibroblasts (HPLF)
Protocol: as §1

[4] = Cytotoxicity against non-malignant HPC cells, MTT method, 48 h; assay type: cell-based; conditions: human, pulp cells (HPC)
Protocol: as §1

[5] = Average over HGF, HPLF and HPC non-malignant cells; assay type: cell-based; conditions: human, HPLF and HPC non-malignant cells (average of the three)
Protocol: as §1

[6] = tested on: CEM T-lymphoblastic leukemia cells; assay: Cytotoxicity against CEM cells, MTT method, 24 h; assay type: cell-based; conditions: Homo sapiens, CCRF-CEM, concentration required to inhibit cell growth by 50%
Protocol: The method used for the evaluation of various compounds against human CEM cells has been reported previously. In brief, cells were grown in RPMI-1640 medium supplemented with 10% heat-inactivated fetal bovine serum. Different concentrations of compounds were added to the media, and after 24 h incubation, cytotoxicity was measured by the MTT method.

HL-60 (TB) cells = assay: NCI in vitro screen, leukemia HL-60 (TB); assay type: cell-based; conditions: Homo sapiens
Excerpt: (§2) In view of the encouraging result with CEM leukemic cells, consideration was given to an assessment in the NCI in vitro screening program. The oximes, but not the quaternary ammonium salts, were accepted for bioevaluation. Examination of the mean graphs confirms the sensitivity of leukemic cells to these compounds.

K-562 cells = assay: NCI in vitro screen, leukemia K-562; assay type: cell-based; conditions: Homo sapiens, K562
Excerpt: as §2

Molt-4 cells = assay: NCI in vitro screen, leukemia Molt-4; assay type: cell-based; conditions: Homo sapiens
Excerpt: as §2

RPMI-8226 cells = assay: NCI in vitro screen, leukemia RPMI-8226; assay type: cell-based; conditions: Homo sapiens
Excerpt: as §2

SR cells = assay: NCI in vitro screen, leukemia SR; assay type: cell-based; conditions: Homo sapiens
Excerpt: as §2

leukemia cells = assay: NCI in vitro screen, average of leukemia cells; assay type: cell-based; conditions: Homo sapiens
Excerpt: as §2

All Cell Lines = assay: NCI in vitro screen, all cell lines; assay type: cell-based; conditions: Homo sapiens
Excerpt: (§3) One particular reference drug is 5-fluorouracil, which is used in treating colon cancers.

Colo205 cells = assay: NCI in vitro screen, colon cancer Colo205; assay type: cell-based; conditions: Homo sapiens, COLO 205
Excerpt: as §3

HCC-2998 cells = assay: NCI in vitro screen, colon cancer HCC-2998; assay type: cell-based; conditions: Homo sapiens
Excerpt: as §3

HCT-116 cells = assay: NCI in vitro screen, colon cancer HCT-116; assay type: cell-based; conditions: Homo sapiens
Excerpt: as §3

HCT-15 cells = assay: NCI in vitro screen, colon cancer HCT-15; assay type: cell-based; conditions: Homo sapiens
Excerpt: as §3

HT29 cells = assay: NCI in vitro screen, colon cancer HT29; assay type: cell-based; conditions: Homo sapiens, HT-29
Excerpt: as §3

KM12 cells = assay: NCI in vitro screen, colon cancer KM12; assay type: cell-based; conditions: Homo sapiens
Excerpt: as §3

SW-620 cells = assay: NCI in vitro screen, colon cancer SW-620; assay type: cell-based; conditions: Homo sapiens
Excerpt: as §3

colon cancer cells = assay: NCI in vitro screen, average of colon cancer cells; assay type: cell-based; conditions: Homo sapiens
Excerpt: as §3

SMILES	CC50 (Ca9-22 cells)	SI Ca9-22 (Ca9-22 cells)	CC50 (HSC-2 cells)	SI HSC-2 (HSC-2 cells)	CC50 (HSC-4 cells)	SI HSC-4 (HSC-4 cells)	CC50 [1]	Average SI [1]	CC50 at 48 h [2]	CC50 at 48 h [3]	CC50 at 48 h [4]	CC50 at 48 h [5]	IC50 [6]	IC50 (HL-60 (TB) cells)	IC50 (K-562 cells)	IC50 (Molt-4 cells)	IC50 (RPMI-8226 cells)	IC50 (SR cells)	IC50 (leukemia cells)	IC50 (All Cell Lines)	also measured
O=C1/C(=C/c2ccc(F)cc2)CN(C(=O)CCN2CCC(=NO)CC2)C/C1=C\c1ccc(F)cc1 [Compound 3b, (3~{E},5~{E})-3,5-bis[(4-fluorophenyl)methylene]-1-[3-(4-hydroximino-1-piperidyl)propanoyl]piperidin-4-one hydrochloride]	370 ± 190 nM	28.1	730 ± 130 nM	14.3	200 ± 80 nM	52.0	430 nM	31.5	7.12 ± 0.04 µM	9.73 ± 0.23 µM	14.2 ± 2 µM	10.4 µM	1.78 ± 0.21 µM	1550 nM	350 nM	330 nM	290 nM	250 nM	520 nM	1150 nM	IC50 (Colo205 cells): 1500 nM; IC50 (HCC-2998 cells): 1410 nM; IC50 (HCT-116 cells): 220 nM; IC50 (HCT-15 cells): 370 nM; IC50 (HT29 cells): 320 nM; IC50 (KM12 cells): 230 nM; IC50 (SW-620 cells): 200 nM; IC50 (colon cancer cells): 610 nM
O=C1/C(=C/c2ccc(Cl)c(Cl)c2)CN(C(=O)CCN2CCC(=NO)CC2)C/C1=C\c1ccc(Cl)c(Cl)c1 [Compound 3d, (3~{E},5~{E})-3,5-bis[(3,4-dichlorophenyl)methylene]-1-[3-(4-hydroximino-1-piperidyl)propanoyl]piperidin-4-one hydrochloride]	20 ± 10 nM	180	100 ± 20 nM	35.9	70 nM	51.3	60 nM	89.1	1.91 ± 0.22 µM	3.9 ± 1.42 µM	4.97 ± 0.89 µM	3.59 µM	8.49 ± 0.34 µM	1000 nM	250 nM	320 nM	230 nM	100 nM	370 nM	1300 nM	IC50 (Colo205 cells): 390 nM; IC50 (HCC-2998 cells): 360 nM; IC50 (HCT-116 cells): 320 nM; IC50 (HCT-15 cells): 270 nM; IC50 (HT29 cells): 320 nM; IC50 (KM12 cells): 250 nM; IC50 (SW-620 cells): 230 nM; IC50 (colon cancer cells): 310 nM
